Measured values reported in patent US20030027856A1, “Tolterodine metabolites” (priority 2001, published 2003).

Tests used:
[1] = Cardiac side effects: QTc interval of the EKG in anesthetized guinea pigs; format: in vivo; conditions: guinea pig, intravenous infusion over 30 min
Procedure: Male guinea pigs (450-600 g) are anesthetized with freshly prepared dialurethane sodium. The jugular vein is catheterized for iv administration of test drugs and the trachea is exposed and cannulated. Subdermal electrodes are positioned for Lead II electrocardiogram recording, monitored on a Grass Polygraph recorder, set at a paper speed of 50 mm/sec. The animals are allowed to stabilize for 30 minute after completion of surgery, and three baseline EKG recordings are then made at 10-minute intervals. The animals are then given a dose of the test compound or vehicle as an intravenous infusion over 30 min. EKG recordings are used to determine QT intervals and heart rates. To compensate for variations in heart rates, QTc intervals are calculated from QT- and RR-intervals as known to those skilled in the art. Prolongation of QTc is indicative of a prolonged action potential, caused by an inhibition of the delayed rectifier potassium channel. Prolongation of QTc is the known cause of Torsades de Pointes ventricular fibrillation by drugs such as terfenadine, astemizole and terodiline (now withdrawn from the market).

muscarinic receptors = experiment: Functional characterization of antimuscarinic activities on smooth muscle strips; design: species or system guinea pig; conditions: pharmacological studies in comparison with tolterodine
Procedure: Experiments are performed using methods similar to those described by Kachur et al, 1988 (R and S enantiomers of oxybutynin: Pharmacological effects in guinea pig bladder and intestine. J Pharmacol Exp Ther 247: 867-872) and Noronha-Blob and Kachur, 1991 (Enantiomers of Oxybutynin: In vitro pharmacological characterization at M1, M2 and M3 muscarinic receptors and in vivo effects on urinary bladder contraction, mydriasis and salivary secretion in guinea pigs. J Pharmacol Exp Ther 256: 562-567). Strips of tissue (approximately 10 mm long and 1.5 mm wide) are removed from the body of the urinary bladder of male guinea pigs weighing 400-600 g. […] Contractions are recorded with transducers on a polygraph.
The present series of experiments focuses on the anticholinergic actions of DES-TOLT, and RS-DES-TOLT and their metabolites. In these experiments, in order to assess the viability of each tissue and to serve as a frame of reference, contractions of each strip of tissue are recorded initially in response to exposure to tissue medium in which NaCl is replaced by KCl to yield a concentration of 137.7 mM KCl in the medium. This is followed by return to the standard medium, and then by exposures to progressively in creasing concentrations of carbachol, with separate exposures to each concentration only until the peak response has been recorded. […]

antimuscarinic activities (muscarinic receptors) | Compound | prolongation of the QTc-interval of the EKG [1]
 | CC(C)N(CC[C@H](c1ccccc1)c1cc(CO)ccc1O)C(C)C [5-HM, R(+)-N,N-diisopropyl-3-(2-hydroxy-5-(hydroxymethyl)phenyl)-3-phenylpropylamine] | did not cause a prolongation of the QTc interval
potent antimuscarinic activities | CC(C)NCC[C@H](c1ccccc1)c1cc(CO)ccc1O [5-HM-DES-TOLT, R(+)-N-Isopropyl-3-(2-hydroxy-5-(hydroxymethyl)phenyl)-3-phenylpropylamine] | 
potent antimuscarinic activities | Cc1ccc(O)c([C@H](CCNC(C)C)c2ccccc2)c1 [DES-TOLT, R(+)-N-isopropyl-3-(2-hydroxy-5-methylphenyl)-3-phenylpropylamine] | did not cause a prolongation of the QTc interval
 | CC(C)N(CCC(c1ccccc1)c1cc(CO)ccc1O)C(C)C (centres unmarked) [RS-5-HM, RS-N,N-diisopropyl-3-(2-hydroxy-5-(hydroxymethyl)phenyl)-3-phenylpropylamine] | did not cause a prolongation of the QTc interval
 | Cc1ccc(O)c(C(CCNC(C)C)c2ccccc2)c1 (centres unmarked) [RS-DES-TOLT, RS-N-Isopropyl-3-(2-hydroxy-5-methylphenyl)-3-phenylpropylamine] | did not cause a prolongation of the QTc interval
 | Cc1ccc(O)c(C(CCN(C(C)C)C(C)C)c2ccccc2)c1 (centres unmarked) [RS-TOLT, RS-N,N-diisopropyl-3-(2-hydroxy-5-methylphenyl)-3-phenylpropylamine, reference compound] | cause a prolongation of the QTc-interval
 | Cc1ccc(O)c([C@H](CCN(C(C)C)C(C)C)c2ccccc2)c1 [TOLT, R(+)-N,N-diisopropyl-3-(2-hydroxy-5-methylphenyl)-3-phenylpropylamine] | cause a prolongation of the QTc-interval
